Patent publication US20090325863A1, “Somatostatin analogs and IGF-I inhibition for breast cancer prevention” (priority 2008, published 2009)
Entries after “also recorded” stand apart in the source; their conditions may differ. Marks after values point to notes of the source that are not given here. Bridges are numbered along the chain shown (N, C = ends). Where no end group is shown, it is not given here.

Experiments:
[1] = system: mammary development; experiment: Mammary development of CD female mice (TEB, branch, area in whole mounts); assay type: in vivo
Procedure: The effect of PQ401 and Somatostatin 14 (SS14) on mammary development of CD female mice was determined. FIG. 10 depicts control animals at 21 and 28 days versus 28 day old animals treated with PQ401 for 7 days and 28 day old animals treated with SS14 for 7 days.

[2] = system: hGH induced TEB formation; experiment: Hyperplastic terminal endbuds (TEBs) in mammary gland whole mounts, hGH+E2 model; assay type: in vivo, rat; conditions: hGH+E2, 7 days; reduced from 86.5 (86) TEBs in hGH+E2 control
From the text: At the end of 7 days one lumbar mammary gland was removed for whole mount analysis and the other for histological analysis. Hyperplastic TEBs were counted in the whole mounts. […] Representative photomicrographs of the whole mounts are provided in FIG. 5 and suppression by the different treatments is shown graphically in FIG. 6.

[3] = system: mammary hyperplasia induced by hGH and E2; experiment: Mammary hyperplasia model induced by hGH and E2, counts in histological sections; assay type: in vivo, rat; conditions: for Total# / Mild# / Moderate# / Florid# / DH#: Table 3; for Total#: SOM230 30 mcg/h/kg, Octreotide 30 mcg/hr/kg, Tamoxifen 30 mg/21 day release pellet, GH + E2 control 88.3 ± 6.3; for Mild# / Moderate# / Florid# / DH#: same doses; for Mild#: GH + E2 control 4.4 ± 0.6; for Moderate#: GH + E2 control 5.3 ± 0.6; for Florid#: GH + E2 control 10 ± 0.7; for DH#: GH + E2 control 19.7 ± 1.5; for inhibitory effect on hyperplasia compared with SOM230 alone (in words): hGH+E2 model, 7 days, no dose response comparison
From the text: To test whether SOM230, a drug that inhibits IGF-I action on the breast, was effective, we implemented a model of hyperplasia and then determined whether the hyperplasia could be inhibited by SOM230. We administered human growth hormone (600 mcg in alzet pumps) for a week, and gave this together with estradiol (an estrogen). At the end of 7 days florid hyperplasia developed. Mammary hyperplasia was modeled by treating hypophysectomized, oophorectomized female rats with high doses human growth hormone (hGH) (600 μg in Alzet pumps) and follicular phase concentrations of estradiol (E2) administered in silastic capsules for 7 days. In the absence of hGH, these animals would not undergo mammary development. In animals receiving E2 alone, there was virtually no hyperplasia. When hGH was added to E2 there were more glands (42.2±1.4 vs. 71.9±5.4, E2 vs. E2+hGH, respectively). There was no florid hyperplasia with E2 treatment. When hGH was given also, 26.6% of the glands were hyperplastic, with 50% of those being floridly hyperplastic, 7% moderate hyperplasia and 5.9% mild hyperplasia. […] This is shown in histological sections (FIG. 1), graphically (FIG. 2) and in tabular form below (TABLE 1).
Background: Antiestrogens or aromatase inhibitors are used for breast cancer chemoprevention. These treatments cause unpleasant side effects including hot flashes and vaginal dryness. We have previously shown that IGF-I is required to permit estrogen and progesterone action in the mammary gland. […] Menopausal symptoms would not likely to occur with SOM230 since estrogen is not lowered. Material and Methods: We have approached this issue in several ways. 1) We developed a model of hyperplasia in hypophysectomized and oophorectomized female rats. Hyperplasia was induced by treatment with 600 mcg hGH and follicular phase concentrations of estradiol. Hyperplasia was assessed histologically in sections of mammary gland. 2) To assess translatability to humans we assessed cell proliferation and apoptosis in normal human breast from reduction mammoplasties and samples of usual hyperplasia. 3) We also determined availability of SST receptors in samples of atypical ductal hyperplasia and DCIS, and 4) We have begun to determine whether SOM230 will prevent hyperplasia in humans at risk for breast cancer as it does in rats.
The degree of hyperplasia was analyzed in 3 histological sections at different levels in 3 test animals given GH+E2. The different types of hyperplasia were counted. For example, the total mean number of ducts was 88.3. Of those ducts, there were 19.7 or 22.3% of total ducts that were hyperplastic. The breakdown was a mean of 10 ducts with florid hyperplasia (lumen is distended and mostly obliterated by epithelial cells), a mean of 5.3 ducts with moderate hyperplasia (an increase in cell layers to >4 cells thick), and a mean of 4.4 characterized as mild hyperplasia (no more than 4 cell thickness).
There were 4 additional treatment groups and one E2 treated control group.

[4] = system: pYIRS-1 (phosphorylated IRS-1), product of IGF-I action; experiment: Immunostaining for phosphorylated IRS-1 in mammary gland, hGH+E2 model; assay type: in vivo, rat; conditions: hGH+E2 treated animals; staining most intense with hGH+E2
From the text: FIG. 12 depicts immunostaining for pYIRS-1 (phosphorylated IRS-1) in a representative E2 treated control (upper left), an hGH+E2 treated animal (upper right), an hGH+E2+SOM230 treated animal (lower left) and an hGH+E2+tamoxifen treated animal (lower right). The intensity of staining parallels IGF-I action as phosphorylated IRS-1 is a product of IGF-I action. In this study, staining (brown color) was most intense in response to hGH+E2 and was inhibited by both SOM230 and tamoxifen. […] This reflection of inhibition of IGF-I activity also supports the greater inhibitory effect of SOM230 over that of tamoxifen.

[5] = system: development of breast cancer; conditions: women with hyperplastic lesions of the breast; cited from earlier work

## Somatostatin 14: Somatostatin 14 (SS14) (AGCKNFFWKTFTSC; disulfide 3-14; ends not checked; UniProt P61278 103-116, looked up)
[1]; 28 day old CD female mice treated 7 days, PQ401 100/kgbw ip thrice weekly, SS14 15 mcg/hr/Kg Alzet pump, 28d control 18.6 ± 1.5
  TEB (number): 18.5 ± 1.5
[1]; same treatment, 28d control 52.2 ± 2.0, 21d control 23 ± 3.2
  area %: 36.3 ± 6.2%

## Octreotide
[2]
  number of hyperplastic TEBs in whole mounts: 60
[3]
  Total#: 76.3 ± 7.3
  Mild#: 4.6 ± 0.8
  Moderate#: 5.8 ± 1.0
  Florid#: 5.0 ± 0.8^e
  DH#: 15.4 ± 2.6
  inhibitory effect on hyperplasia compared with SOM230 alone (in words): significantly lower than SOM230 alone

## CC/C(=C(\c1ccccc1)c1ccc(OCCN(C)C)cc1)c1ccccc1 [Tamoxifen]
[4]
  intensity of pYIRS-1 immunostaining: inhibited; also recorded: more intense than in the SOM230 treated one
[2]
  number of hyperplastic TEBs in whole mounts: 49
[3]
  Total#: 74.2 ± 7.7
  Mild#: 3.6 ± 0.4
  Moderate#: 4.8 ± 0.6
  Florid#: 4.5 ± 0.6^e
  DH#: 12.4 ± 1.5
  inhibitory effect on hyperplasia compared with SOM230 alone (in words): significantly less effective than SOM230
[3]; listed as tamoxifen
  inhibitory effect on hyperplasia compared with SOM230 alone (in words): significantly lower than SOM230 alone
[5]
  prevention of the development of cancer: about 50%
